Key:
Type in all cases: cell-based
Saos-2 cell line = assay: MTT assay, toxicity (cell viability), Saos-2
Procedure: (§1) The MTT assay measures cell proliferation as well as reduction in cell viability when metabolic events lead to apoptosis or necrosis. It can also be used to assess the rate of survival of a given cell line when it is incubated in the presence of xenobiotics. The reduction of tetrazolium salts is accepted as a reliable way to analyse cell proliferation. The yellow tetrazolium MTT (3-(4,5-dimethylthiazolyl-2)-2,5-diphenyltetrazolium bromide) is reduced by metabolically active cells and results in the intracellular formation of purple formazan that can be spectrophotometrically measured after solubilisation with DMSO.
(§2) The MTT assay was used in this invention to assess the toxicity of compounds at different concentrations. To analyse their potential impairment in cell viability, compounds were added to Saos-2 and U937 cell lines at different concentrations and incubated at different times. Results are expressed by percentage cell viability.

U937 cell line = assay: MTT assay, toxicity (cell viability), U937
Procedure: as §1, §2

[1] = test system: Caspase activity, U937 cell extracts; assay: Caspase inhibition assay, U937 cell extracts; conditions: for % Inh. caspase: 50 μM drug-eq.; for % Caspase inhibition: 5 μM
Procedure: (§3) The time-dependent inhibition of caspase induced by the compounds described in this invention was analysed. […] Caspase activity was assayed using Saos-2 or U937 cell extracts and Ac-DEVD-afc (N-acetyl-Asp-Glu-Val-Asp-afc(7-amino-4-trifluoromethyl coumarin)) as substrate (20 μM). Caspase activity was continuously monitored by the liberation of fluorescent afc using a Cytofluor 4000 fluorimeter (excitation 400 nm; emission 508 nm) for 1 hour. The effect of the compounds on the caspase activity was expressed as the percentage of inhibition in the fluorescence signal of treated cells vs. the non-treated cells (control).

[2] = test system: Caspase activity, Saos-2 cell extracts; assay: Caspase inhibition assay, Saos-2 cell extracts; conditions: for % Inh. caspase: 50 μM drug-eq.; for % Caspase inhibition: 5 μM
Procedure: as §3

[3] = test system: Apaf-1 induced apoptosis, Saos-2 cells; assay: Inhibition of Apaf-1-induced apoptosis, cellular assay, Saos-2; conditions: Saos-2 treated with apoptosome activator, 50 μM drug-eq
Procedure: (§4) The time-dependent inhibition of caspase induced by the compounds described in this invention was analysed. Cell lines were grown in the presence or absence of compounds (50 μM) at different times. Caspase activity was assayed using Saos-2 or U937 cell extracts and Ac-DEVD-afc (N-acetyl-Asp-Glu-Val-Asp-afc(7-amino-4-trifluoromethyl coumarin)) as substrate (20 μM). Caspase activity was continuously monitored by the liberation of fluorescent afc using a Cytofluor 4000 fluorimeter (excitation 400 nm; emission 508 nm) for 1 hour. The effect of the compounds on the caspase activity was expressed as the percentage of inhibition in the fluorescence signal of treated cells vs. the non-treated cells (control).
(§5) The activity of the compounds regards their specific target within the apoptotic machinery was assessed. Apaf-1 oligomerisation is a molecular event that leads to the activation of the apoptosome formation, which ends up in the induction of apoptosis. These experiments were performed in cell-free and in cellular assays.
(§6) For the cellular assays, Saos-2 and U937 cells were treated with an apoptosome activator (Nguyen and Wells, Proc. Natl. Acad. Sci. USA 2003, 100:7533-7538), which specifically induces Apaf-1 oligomerisation. […] The capacity of the compounds of inhibiting the Apaf-1 induced apoptosis was analysed by the inhibition of caspase activity (see above).

[4] = test system: Apaf-1 induced apoptosis, U937 cells; assay: Inhibition of Apaf-1-induced apoptosis, cellular assay, U937; conditions: U937 treated with apoptosome activator, 50 μM drug-eq
Procedure: as §4, §5, §6

Caspase activity, HeLa = assay: Caspase inhibition assay, HeLa; conditions: 5 μM
Caspase activity, U2-OS = assay: Caspase inhibition assay, U2-OS; conditions: 5 μM

Poly-L-glutamic acid-[1-[2-(2,4-Dichlorophenyl)ethyl]-3-(3,3-diphenyl-propyl)-3,7-dioxo[1,4]diazepane-5-carboxylic acid {[({[(5-amino-1-carbamoylpentylcarbamoyl)methyl]-carbamoyl}methyl)carbamoyl]methyl}-[2-(2,4-dichlorophenyl)ethyl]amide] conjugate [III.1]
% Cell viability (Saos-2 cell line; Saos-2, 24 h, 20 μM drug-eq.): 96% | % Cell viability (Saos-2 cell line; Saos-2, 24 h, 50 μM drug-eq.): 99% | % Cell viability (Saos-2 cell line; Saos-2, 24 h, 100 μM drug-eq.): 93% | % Cell viability (Saos-2 cell line; Saos-2, 24 h, 250 μM drug-eq.): 75% | % Cell viability (Saos-2 cell line; Saos-2, 24 h, 500 μM drug-eq.): 35% | % Cell viability (Saos-2 cell line; Saos-2, 48 h, 20 μM drug-eq.): 95% | % Cell viability (Saos-2 cell line; Saos-2, 48 h, 50 μM drug-eq.): 87% | % Cell viability (Saos-2 cell line; Saos-2, 48 h, 100 μM drug-eq.): 95% | % Cell viability (Saos-2 cell line; Saos-2, 72 h, 20 μM drug-eq.): 86% | % Cell viability (Saos-2 cell line; Saos-2, 72 h, 50 μM drug-eq.): 63% | % Cell viability (Saos-2 cell line; Saos-2, 72 h, 100 μM drug-eq.): 68% | % Cell viability (U937 cell line; U937, 24 h, 20 μM drug-eq.): 98% | % Cell viability (U937 cell line; U937, 24 h, 50 μM drug-eq.): 96% | % Cell viability (U937 cell line; U937, 24 h, 100 μM drug-eq.): 84% | % Cell viability (U937 cell line; U937, 24 h, 250 μM drug-eq.): 50% | % Cell viability (U937 cell line; U937, 24 h, 500 μM drug-eq.): 27% | % Inh. caspase ([1]; U937, 24 h): 74% | % Inh. caspase ([1]; U937, 48 h): 85% | % Inh. caspase ([1]; U937, 72 h): 100% | % Inh. caspase ([2]; Saos-2, 24 h): 67% | % Inh. caspase ([2]; Saos-2, 48 h): 72% | % Inh. caspase ([2]; Saos-2, 72 h): 100% | % Inh. caspase activity ([3]; 24 h): 22% | % Inh. caspase activity ([3]; 48 h): 54% | % Inh. caspase activity ([4]; 24 h): 27% | % Inh. caspase activity ([4]; 48 h): 95%

COc1ccccc1CCN(CC(N)=O)C(=O)C1CC(=O)N(CCc2ccc(Cl)cc2Cl)CC(=O)N1CCC(c1ccccc1)c1ccccc1 (stereo not shown) [I.7, 1-[2-(2,4-Dichlorophenyl)ethyl]-4-(3,3-diphenylpropyl)-3,7-dioxo[1,4]diazepane-5-carboxylic acid carbamoylmethy-[2-(2-methoxyphenyl)ethyl]amide]
% Cell viability (Saos-2 cell line; Saos-2, 24 h, 1 μM): 95% | % Cell viability (Saos-2 cell line; Saos-2, 24 h, 5 μM): 99% | % Cell viability (Saos-2 cell line; Saos-2, 24 h, 10 μM): 98% | % Cell viability (Saos-2 cell line; Saos-2, 48 h, 1 μM): 100% | % Cell viability (Saos-2 cell line; Saos-2, 48 h, 5 μM): 100% | % Cell viability (Saos-2 cell line; Saos-2, 48 h, 10 μM): 100% | % Cell viability (U937 cell line; U937, 24 h, 1 μM): 99% | % Cell viability (U937 cell line; U937, 24 h, 5 μM): 95% | % Cell viability (U937 cell line; U937, 24 h, 10 μM): 93% | % Cell viability (U937 cell line; U937, 48 h, 1 μM): 100% | % Cell viability (U937 cell line; U937, 48 h, 5 μM): 100% | % Cell viability (U937 cell line; U937, 48 h, 10 μM): 97% | % Caspase inhibition (Caspase activity, HeLa; 24 h): 6% | % Caspase inhibition (Caspase activity, HeLa; 48 h): 7% | % Caspase inhibition (Caspase activity, HeLa; 72 h): 11% | % Caspase inhibition (Caspase activity, U2-OS; 24 h): 0% | % Caspase inhibition (Caspase activity, U2-OS; 48 h): 31% | % Caspase inhibition (Caspase activity, U2-OS; 72 h): 33% | % Caspase inhibition ([1]; U937, 24 h): 10% | % Caspase inhibition ([1]; U937, 48 h): 8% | % Caspase inhibition ([1]; U937, 72 h): 2% | % Caspase inhibition ([2]; Saos-2, 24 h): 0% | % Caspase inhibition ([2]; Saos-2, 48 h): 24%
